According to patent US20240252519A1, “METHODS FOR THE TREATMENT OF POST-TRAUMATIC STRESS DISORDER AND TRAUMATIC BRAIN INJURY WITH CANNABINOIDS” (ANANDA SCIENTIFIC, INC., priority 2021, published 2024):

Key:
[1] = Chemical characteristics of composition A′, concentrated and diluted forms; assay type: physicochemical
Method: Several tests were conducted to determine the chemical characteristics of composition A′, both in concentrated and diluted forms. […] All liquid nanodomain droplets range in size from 5 to 20 nm. The pH of both the concentrate and diluted formulations is between 6.0 and 7.5.

[2] = doses ranging from 10 mg to 6000 mg, single and multiple doses; cited from earlier work
CB2 receptors = CB2 receptors (Homo sapiens, UniProt P34972); details: cited from earlier work
[3] = rats, cited from earlier work

Chain of CB2 receptors (P34972 whole entry): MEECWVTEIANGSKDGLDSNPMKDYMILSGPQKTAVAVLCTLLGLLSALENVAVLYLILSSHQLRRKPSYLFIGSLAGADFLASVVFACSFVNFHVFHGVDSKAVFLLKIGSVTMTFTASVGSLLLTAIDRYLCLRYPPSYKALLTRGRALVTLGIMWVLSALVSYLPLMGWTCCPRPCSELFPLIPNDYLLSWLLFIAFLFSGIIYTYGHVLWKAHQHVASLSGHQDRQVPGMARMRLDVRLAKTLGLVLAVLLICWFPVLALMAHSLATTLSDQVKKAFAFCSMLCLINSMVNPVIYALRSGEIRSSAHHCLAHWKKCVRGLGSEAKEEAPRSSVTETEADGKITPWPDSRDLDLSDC

C=C(C)[C@@H]1CCC(C)=C[C@H]1c1c(O)cc(CCCCC)cc1O [CBD, 2-(1R,6R)-3-methyl-6-prop-1-en-2-ylcyclohex-2-en-1-yl-5-pentylbenzene-1,3-diol]
logP [1]: ~6 | Safety [2]: safe | Affinity for CB2 receptors (CB2 receptors): low affinity | T1/2 ([3]; 120 mg/kg dose, oral): 4 to 5 h | Bioavailability of CBD delivered orally ([3]; single 10 mg/kg): 2.8%
